Test results taken from article PMC6024615, “Effect of Biliary Drainage on the Toxicity and Toxicokinetics of Amanita exitialis in Beagles” (Toxins, 2018).

Assay: Peptide toxins in the blood / toxicokinetics in beagles with biliary drainage
Assay type: in vivo, beagle dogs
Design: Dose normalized AUC (0–∞) / Dose normalized Cmax: unit not given here
Conditions: for T1/2: UPLC-ESI-MS/MS
Procedure: The study was approved by National Institute of Occupational Health and Poison Control review board for animal experiments. Twenty-four male beagles (age, 8–10 months; weight, 10 ± 1 kg) were obtained from Beijing Institute of Xieerxin Biology Resource (Beijing, China). They were randomly divided into four groups of six animals each: control, biliary drainage, and 20 and 60 mg/kg with biliary drainage groups. The biliary drainage operation was conducted in all groups barring the control group. The dogs were dressed in homemade underwear, coats, and Elizabeth circles for a week to ensure pre-experimental acclimatization (Figure S8a–c). After determining the baseline values for biochemical indicators, the dogs were fasted for 24 h but received water ad libitum. They were anesthetized by intravenous administration of pentobarbital sodium (3%, 1 mL/kg) during the surgery. A temperature of 38–39 °C was maintained with a warming mat. After skin preservation and sterilization, the abdominal cavity was opened through the central abdomen. The abdomen was explored and blunt dissection of the common bile duct was performed (Figure S8d). The common bile duct and its branches were ligated from the intestinal side. A 7.0-Fr drainage catheter (COOK, Bloomington, IN, USA) was percutaneously inserted into the gallbladder, and a medical drainage bag was connected to the drainage catheter coming out of the abdominal cavity. Each opened layer, including the peritoneum, abdominal wall muscle, and skin, was closed with suture. The operative incision was protected with sterile gauze and a bandage, and the dogs were dressed in homemade underwear, coats, and Elizabeth circles. The drainage bag was placed in the pocket of the coat (Figure S8e). After the anesthetic wore off, the dogs were placed in cages, and food and water were provided ad libitum. The operative incision was sterilized with iodophor twice a day until stitches were removed six days after surgery. The drainage bag was replaced every day. On the eighth day after surgery, the 20 and 60 mg/kg with biliary drainage groups were orally administered a lyophilized powder of Amanita exitialis in starch capsules. In control and bile drainage group, the beagle dogs were fed with empty capsules. Immediately after dosing, the animals were placed in their cages, and food and water were provided ad libitum. Dogs were sacrificed with an overdose of sodium pentobarbital at the end of the experiment. All procedures were performed according to the ethical standards of the National Institutes of Health Guide for Animal Welfare and approved by the Institutional Animal Care and Use Committee (EAWE-2017-005).
Peptide toxins in blood and urine samples were analyzed as described previously. Bile samples from Days 0–1, Days 1–2, Days 2–3, and Days 3–4 were collected and stored in medical drainage bags and the bile volume was recorded. Plasma and urine samples were stored at 2–8 °C until analysis for peptide toxins.
UPLC and MS/MS parameters were as described in our previous study. The limit of detection and limit of quantitation of each toxin in the bile were 0.03 mg/kg and 0.5 mg/kg, respectively.
Toxicokinetic parameters were described in our previous study. Measurement data are reported as mean ± standard deviation values and enumeration data are reported as percentage (%). […] SPSS 22.0 (IBM Corporation, Armonk, NY, USA, 2015) was used for statistical analysis. The criterion for statistical significance was p ≤ 0.05. Except for the biliary drainage operation, the animals and methods in our present study are in accordance with our previously published study. Thus, by directly comparing the data from this study with those from our published studies on Amanita exitialis-exposed beagles without biliary drainage, we can evaluate the impact of biliary drainage on the toxicity and toxicokinetics of Amanita exitialis in beagles.

[1] = 20 mg/kg Amanita exitialis oral, biliary drainage, plasma, mean ± SD
[2] = 60 mg/kg Amanita exitialis oral, biliary drainage, plasma, mean ± SD

CC[C@H](C)[C@@H]1NC(=O)CNC(=O)[C@@H]2Cc3c([nH]c4cc(O)ccc34)[S@+]([O-])C[C@H](NC(=O)CNC1=O)C(=O)N[C@@H](CC(N)=O)C(=O)N1C[C@H](O)C[C@H]1C(=O)N[C@@H]([C@@H](C)[C@@H](O)CO)C(=O)N2 [α-amanitin]
detection rate of peptide toxins in blood (0 h after ingestion, 60 mg/kg with biliary drainage group): 0% | T1/2 [1]: 1.08 ± 0.76 h | AUC (0–∞) [1]: 5.36 ± 3.17 µg·h/L | CL/F [1]: 14.2 ± 7.17 mL/min/kg | Cmax [1]: 1.73 ± 0.58 µg/L | Dose normalized AUC (0–∞) [1]: 138.9 ± 82.1 | Dose normalized Cmax [1]: 44 ± 15.1 | MRT (0–∞) [1]: 3.55 ± 0.8 h | Tmax [1]: 1.38 ± 0.48 h | Vz/F [1]: 1.07 ± 0.31 L/kg | T1/2 [2]: 1.2 ± 0.58 h | AUC (0–∞) [2]: 31.99 ± 9.65 ^a,* µg/L × h | CL/F [2]: 6 ± 1.83 mL/min/kg | Cmax [2]: 12.25 ± 3.54 ^a,* µg/L | Dose normalized AUC (0–∞) [2]: 238.2 ± 83.9 | Dose normalized Cmax [2]: 86.1 ± 30.8 | MRT (0–∞) [2]: 2.87 ± 0.43 h | Tmax [2]: 1.13 ± 0.25 h | detection rate of peptide toxins in blood (0.25 h after ingestion, 20 mg/kg with biliary drainage group): 0% | detection rate of peptide toxins in blood (0.25 h after ingestion, 60 mg/kg with biliary drainage group): 0% | detection rate of peptide toxins in blood (0.5 h after ingestion, 20 mg/kg with biliary drainage group): 33% | detection rate of peptide toxins in blood (0.5 h after ingestion, 60 mg/kg with biliary drainage group): 33% | detection rate of peptide toxins in blood (1 h after ingestion, 20 mg/kg with biliary drainage group): 100% | detection rate of peptide toxins in blood (1 h after ingestion, 60 mg/kg with biliary drainage group): 100% | detection rate of peptide toxins in blood (1.5 h after ingestion, 20 mg/kg with biliary drainage group): 100% | detection rate of peptide toxins in blood (1.5 h after ingestion, 60 mg/kg with biliary drainage group): 100% | detection rate of peptide toxins in blood (2 h after ingestion, 20 mg/kg with biliary drainage group): 100% | detection rate of peptide toxins in blood (2 h after ingestion, 60 mg/kg with biliary drainage group): 100% | detection rate of peptide toxins in blood (3 h after ingestion, 20 mg/kg with biliary drainage group): 100% | detection rate of peptide toxins in blood (3 h after ingestion, 60 mg/kg with biliary drainage group): 100% | detection rate of peptide toxins in blood (4 h after ingestion, 20 mg/kg with biliary drainage group): 100% | detection rate of peptide toxins in blood (4 h after ingestion, 60 mg/kg with biliary drainage group): 100% | detection rate of peptide toxins in blood (5 h after ingestion, 20 mg/kg with biliary drainage group): 100% | detection rate of peptide toxins in blood (5 h after ingestion, 60 mg/kg with biliary drainage group): 100% | detection rate of peptide toxins in blood (6 h after ingestion, 20 mg/kg with biliary drainage group): 100% | detection rate of peptide toxins in blood (6 h after ingestion, 60 mg/kg with biliary drainage group): 100% | detection rate of peptide toxins in blood (8 h after ingestion, 20 mg/kg with biliary drainage group): 50% | detection rate of peptide toxins in blood (8 h after ingestion, 60 mg/kg with biliary drainage group): 50% | detection rate of peptide toxins in blood (10 h after ingestion, 20 mg/kg with biliary drainage group): 50% | detection rate of peptide toxins in blood (10 h after ingestion, 60 mg/kg with biliary drainage group): 50% | detection rate of peptide toxins in blood (12 h after ingestion, 20 mg/kg with biliary drainage group): 17% | detection rate of peptide toxins in blood (12 h after ingestion, 60 mg/kg with biliary drainage group): 33% | detection rate of peptide toxins in blood (24 h after ingestion, 20 mg/kg with biliary drainage group): 0% | detection rate of peptide toxins in blood (24 h after ingestion, 60 mg/kg with biliary drainage group): 0% | detection rate of peptide toxins in blood (36 h after ingestion, 20 mg/kg with biliary drainage group): 0% | detection rate of peptide toxins in blood (36 h after ingestion, 60 mg/kg with biliary drainage group): 0% | detection rate of peptide toxins in blood (48 h after ingestion, 20 mg/kg with biliary drainage group): 0% | detection rate of peptide toxins in blood (48 h after ingestion, 60 mg/kg with biliary drainage group): 0% | time at which toxins were detected in plasma after ingestion (beagles with biliary drainage, oral Amanita exitialis): 30 min | Vd/F (male, beagle, dog, 60 mg/kg Amanita exitialis oral, biliary drainage, plasma, mean ± SD, read-out: Vz/F): 0.68 ± 0.48 L/kg
